Key:
cathepsin L = cathepsin L (Rattus norvegicus, UniProt P07154); test: In vitro inhibition of cathepsin L; format: biochemical; details: r rat cathepsin L, substrate N-CBZ-Phe-Arg-AMC, pH 5.0, 10 min incubation at room temperature
Experimental: In vitro assay procedure for cathepsin L
After 10 min of incubation at room temperature, a 20 μl of 1 mM substrate (N-CBZ-Phe-Arg-AMC, dissolved in DMSO) was added to initiate reaction. Reading is followed up for 10 min at the fluoroscan reader (excitation at 380 nm emission at 460 nm).

cathepsin B = cathepsin B (Rattus norvegicus, UniProt P00787); test: In vitro inhibition of cathepsin B; format: biochemical; details: r rat cathepsin B, substrate N-CBZ-Phe-Arg-AMC, pH 5.1, 10 min incubation at room temperature
cathepsin B, sequence (P00787 80-339): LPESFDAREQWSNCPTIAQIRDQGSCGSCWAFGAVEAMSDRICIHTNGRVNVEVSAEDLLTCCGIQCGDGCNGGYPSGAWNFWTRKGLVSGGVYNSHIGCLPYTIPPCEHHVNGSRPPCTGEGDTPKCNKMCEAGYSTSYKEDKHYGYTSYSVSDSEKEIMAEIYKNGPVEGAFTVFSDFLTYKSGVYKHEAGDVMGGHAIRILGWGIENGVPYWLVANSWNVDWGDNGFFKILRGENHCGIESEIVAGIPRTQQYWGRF
Experimental: In vitro assay procedure for cathepsin B
The compounds of formula I were tested for inhibition of cathepsin B using the known method (A. J. Barret et al., Biochem. J. 1982, 201, 189-198). To a 170 μl of enzyme-buffer mixture (enzyme: r rat cathepsin B, diluted to give approximate 10 F units/min, buffer: 56 mM sodium acetate, 1.124 mM EDTA, 10 mM DTT, pH 5.1) a 10 μL of inhibitor (dissolved in DMSO) was added. After 10 min of incubation at room temperature, a 20 μl of 5 mM substrate (N-CBZ-Phe-Arg-AMC, dissolved in DMSO) was added to initiate reaction. Reading is followed up for 10 min at the fluoroscan reader (excitation at 380 nm emission at 460 nm).
A plot of percentage of inhibition vs inhibitor concentration is obtained, and IC50 is determined using a linear regression calculations (concentration of inhibitor which will give 50% inhibition).

cathepsin L, sequence (P07154 114-334): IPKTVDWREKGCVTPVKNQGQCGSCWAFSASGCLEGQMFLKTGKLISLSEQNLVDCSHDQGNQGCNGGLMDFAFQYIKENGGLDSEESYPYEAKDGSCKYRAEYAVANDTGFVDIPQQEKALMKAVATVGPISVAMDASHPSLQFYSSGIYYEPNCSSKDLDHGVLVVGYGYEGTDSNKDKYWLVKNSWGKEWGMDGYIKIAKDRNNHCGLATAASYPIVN

Compound | IC50 (cathepsin L) [µM] | IC50 (cathepsin B) [µM]
O=C(N[C@@H]1C(=O)N2CCO[C@H]12)OCc1ccccc1 [Example 1, (5R,6S)-6-benzyloxycarbonylamino-4-oxa-1-azabicyclo[3.2.0]heptan-7-one] | > 50 | > 50
O=C(N[C@@H](Cc1ccccc1)C(=O)N[C@@H]1C(=O)N2CCO[C@H]12)OCc1ccccc1 [Example 2, (5R,6S)-6-(N-benzyloxycarbonyl-L-phenylalanyl)-amino-4-oxa-1-azabicyclo[3.2.0]heptan-7-one] | 0.26 | 4.56
O=C(N[C@@H]1C(=O)N2CCO[C@H]12)[C@@H]1CCCN1C(=O)OCc1ccccc1 [Example 3, (5R,6S)-6-(N-benzyloxycarbonyl-L-prolyl)-amino-4-oxa-1-azabicyclo[3.2.0]heptan-7-one] | 9.4 | > 50
CC[C@H](C)[C@H](NC(=O)OCc1ccccc1)C(=O)N[C@@H]1C(=O)N2CCO[C@H]12 [Example 4, (5R,6S)-6-(N-benzyloxycarbonyl-L-isoleucyl)-amino-4-oxa-1-azabicyclo[3.2.0]heptan-7-one] | 9.88 | > 50
C[C@H](NC(=O)OCc1ccccc1)C(=O)N[C@@H]1C(=O)N2CCO[C@H]12 [Example 5, (5R,6S)-6-(N-benzyloxycarbonyl-L-alanyl)-amino-4-oxa-1-azabicyclo[3.2,0]heptan-7-one] | – | > 50
CC(C)C[C@H](NC(=O)OCc1ccccc1)C(=O)N[C@@H]1C(=O)N2CCO[C@H]12 [Example 6, (5R,6S)-6-(N-benzyloxycarbonyl-L-leucyl)-amino-4-oxa-1-azabicyclo[3.2,0]heptan-7-one] | 0.6 | 30
O=C(NC(C(=O)N[C@@H]1C(=O)N2CCO[C@H]12)c1ccccc1)OCc1ccccc1 (stereo partly drawn) [Example 7, (5R,6S)-6-(N-benzyloxycarbonyl-phenylglycyl)-amino-4-oxa-1-azabicyclo[3.2.0]heptan-7-one] | – | > 50
O=C(N[C@@H](Cc1ccccc1)C(=O)N[C@@H]1C(=O)N2CCO[C@@H]12)OCc1ccccc1 [Example 8, (5S,6S)-6-(N-benzyloxycarbonyl-L-phenylalanyl)-amino-4-oxa-1-azabicyclo[3.2.0]heptan-7-one] | – | 12.2
O=C(CCc1ccccc1)N[C@@H](Cc1ccccc1)C(=O)N[C@@H]1C(=O)N2CC(c3ccccc3)O[C@H]12 (stereo partly drawn) [Example 9, (5R,6S)-6-{N-(3-phenylpropionoyl)-L-phenylalanyl}-amino-3-phenyl-4-oxa-1-azabicyclo[3,2.0]heptan-7-one] | > 50 | > 50
O=C(CCc1ccccc1)N[C@@H](Cc1ccccc1)C(=O)N[C@@H]1C(=O)N2CC(CBr)O[C@@H]12 (stereo partly drawn) [Example 10, (5S,6S)-6-{N-(3-phenylpropionoyl)-L-phenylalanyl}-amino-3-bromomethyl-4-oxa-1-azabicyclo[3.2.0]heptan-7-one] | 0.016 | 1.91
